Experimental data from ChEMBL document CHEMBL5579897, “Design, Synthesis, and Bioevaluation of Novel NLRP3 Inhibitor with IBD Immunotherapy from the Virtual Screen” (J Med Chem, 2024).
Activity calls are given as the source filed them. No cut-off for these calls is given here.

What was measured:
BMDM = assay: Inhibition of LPS/nigericin induced caspase-1 P20 release in M-CSF induced C57BL/6 mouse BMDM cells at 0.5 to 20 uM preincubated with LPS for 4 hrs followed by compound addition for 30 mins and further incubated with nigericin for 30 mins by Western blot analysis; assay type: functional, cell-based; settings: dose 0.5-20 µM, time 60.0 min
Mus musculus [1] = assay: Antiinflammatory activity in male NLRP3 knockout C57BL/6 mouse model of DSS-induced ulcerative colitis assessed as reduction in daily disease activity index at 20 mg/kg, po administered for 10 days with subsequent treatment of DSS in drinking water; assay type: functional, organism-based; settings: time 10.0 day
THP-1 [2] = assay: Inhibition of LPS/nigericin induced caspase-1 P20 release in PMA-differentiated human THP-1 cells at 0.5 to 20 uM preincubated with LPS for 4 hrs followed by compound addition for 30 mins and further incubated with nigericin for 30 mins by Western blot analysis; assay type: functional, cell-based; settings: dose 0.5-20 µM, time 60.0 min
Mus musculus [3] = assay: Antiinflammatory activity in male NLRP3 knockout C57BL/6 mouse model of DSS-induced ulcerative colitis assessed as reduction in IL-1beta level in plasma at 20 mg/kg, po administered for 10 days with subsequent treatment of DSS in drinking water by ELISA; assay type: functional, organism-based; settings: time 10.0 day
THP-1 [4] = assay: Inhibition of NLRP3-ASC interaction in LPS/nigericin induced PMA-differentiated human THP-1 cells at 5 uM preincubated with LPS for 4 hrs followed by compound addition for 30 mins and further incubated with nigericin for 30 mins by Co-immunoprecipitation analysis; assay type: cell-based; settings: time 60.0 min
[5] = Oral bioavailability in male C57BL/6J mouse at 5 mg/kg administered as single dose and measured over 24 hrs by LC-MS/MS analysis; assay type: ADME, organism-based; settings: in vivo
[6] = AUC (0 to t) in male C57BL/6J mouse at 5 mg/kg, po administered as single dose and measured over 24 hrs by LC-MS/MS analysis; assay type: ADME, organism-based; settings: in vivo
Mus musculus [7] = assay: Antiinflammatory activity in male NLRP3 knockout C57BL/6 mouse model of DSS-induced ulcerative colitis assessed as reduction in body weight loss at 20 mg/kg, po administered for 10 days with subsequent treatment of DSS in drinking water; assay type: functional, organism-based; settings: time 10.0 day
[8] = biological target: T1, Interferon-inducible protein AIM2 (Homo sapiens) (UniProt O14862); assay: Inhibition of poly-(dA: dT)-induced AIM2 inflammasome activation in LPS-primed human THP-1 cells assessed as inhibition of IL-1beta secretion at 5 uM pretreated with LPS for 4 hrs followed by compound addition for 0.5 hrs and further stimulated with poly-(dA: dT) for 6 hrs by Western blot analysis; assay type: cell-based; settings: time 6.5 hrs
T1 sequence (whole entry): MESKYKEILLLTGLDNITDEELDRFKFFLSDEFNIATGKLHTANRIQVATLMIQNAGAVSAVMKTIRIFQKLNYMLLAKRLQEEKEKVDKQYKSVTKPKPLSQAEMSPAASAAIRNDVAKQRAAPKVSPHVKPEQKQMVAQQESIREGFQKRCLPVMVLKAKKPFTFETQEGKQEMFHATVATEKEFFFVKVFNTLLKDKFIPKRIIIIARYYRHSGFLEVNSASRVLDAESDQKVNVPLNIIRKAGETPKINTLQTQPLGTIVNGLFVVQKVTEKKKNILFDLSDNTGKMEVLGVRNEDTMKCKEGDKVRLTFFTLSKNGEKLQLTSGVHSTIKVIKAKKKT

[9] = AUC (0 to infinity) in male C57BL/6J mouse at 5 mg/kg, po administered as single dose and measured over 24 hrs by LC-MS/MS analysis; assay type: ADME, organism-based; settings: in vivo
THP-1 [10] = assay: Cytotoxicity against PMA-differentiated human THP-1 cells assessed as reduction in cell viability at 0.5 to 100 uM measured after 24 hrs by MTT assay; assay type: toxicity, cell-based; settings: thp-1, 24 h, dose 0.5-100 µM
THP-1 [11] = assay: Effect on LPS/nigericin induced NLRP3 intracellular expression in PMA-differentiated human THP-1 cells at 0.5 to 20 uM preincubated with LPS for 4 hrs followed by compound addition for 30 mins and further incubated with nigericin for 30 mins by Western blot analysis; assay type: functional, cell-based; settings: dose 0.5-20 µM, time 60.0 min
[12] = Half life in male C57BL/6J mouse at 5 mg/kg, iv administered as single dose and measured over 24 hrs by LC-MS/MS analysis; assay type: ADME, organism-based; settings: in vivo
THP-1 [13] = assay: Inhibition of NF-kappaB pathway in PMA-differentiated human THP-1 cells assessed as inhibition of LPS/nigericin induced TNF-alpha production at 0.5 to 20 uM pretreated with compound followed by LPS stimulation for 4 hrs and further stimulated with nigericin by ELISA; assay type: cell-based; settings: dose 0.5-20 µM
THP-1 [14] = assay: Inhibition of LPS/nigericin induced IL-1beta release in PMA-differentiated human THP-1 cells at 0.5 to 20 uM preincubated with LPS for 4 hrs followed by compound addition for 30 mins and further incubated with nigericin for 30 mins by Western blot analysis; assay type: functional, cell-based; settings: dose 0.5-20 µM, time 60.0 min
[15] = Half life in male C57BL/6J mouse at 5 mg/kg, po administered as single dose and measured over 24 hrs by LC-MS/MS analysis; assay type: ADME, organism-based; settings: in vivo
THP-1 [16] = assay: Inhibition of NLRP3-NEK7 interaction in LPS/nigericin induced PMA-differentiated human THP-1 cells at 5 uM preincubated with LPS for 4 hrs followed by compound addition for 30 mins and further incubated with nigericin for 30 mins by Co-immunoprecipitation analysis; assay type: cell-based; settings: time 60.0 min
[17] = Clearance in male C57BL/6J mouse at 5 mg/kg, iv administered as single dose and measured over 24 hrs by LC-MS/MS analysis; assay type: ADME, organism-based; settings: in vivo
Mus musculus [18] = assay: Antiinflammatory activity in male NLRP3 knockout C57BL/6 mouse model of DSS-induced ulcerative colitis assessed as reduction in colon shortening at 20 mg/kg, po administered for 10 days with subsequent treatment of DSS in drinking water; assay type: functional, organism-based; settings: time 10.0 day
THP-1 [19] = assay: Effect on LPS/nigericin induced NLRP3 mRNA expression in PMA-differentiated human THP-1 cells at 1 to 20 uM pretreated with compound followed by LPS stimulation for 4 hrs and further stimulated with nigericin by RT-PCR analysis; assay type: functional, cell-based; settings: dose 1-20 µM
[20] = Volume of distribution at steady state in male C57BL/6J mouse at 5 mg/kg, iv administered as single dose and measured over 24 hrs by LC-MS/MS analysis; assay type: ADME, organism-based; settings: in vivo, read-out: Vdss
Mus musculus [21] = assay: Antiinflammatory activity in male wild type C57BL/6 mouse model of DSS-induced ulcerative colitis assessed as reduction in NLRP3 level in colon at 5 to 20 mg/kg, po administered for 10 days with subsequent treatment of DSS for 7 days followed by normal drinking water for 3 days by immunohistochemistry analysis; assay type: functional, organism-based; settings: dose 5-20 mg/kg, time 10.0 day
[22] = Volume of distribution in male C57BL/6J mouse at 5 mg/kg, iv administered as single dose and measured over 24 hrs by LC-MS/MS analysis; assay type: ADME, organism-based; settings: in vivo
Mus musculus [23] = assay: Antiinflammatory activity in male wild type C57BL/6 mouse model of DSS-induced ulcerative colitis assessed as reduction in inflammatory cell infiltration at 5 to 20 mg/kg, po administered for 10 days with subsequent treatment of DSS for 7 days followed by normal drinking water for 3 days by H and E staining based analysis; assay type: functional, organism-based; settings: dose 5-20 mg/kg, time 10.0 day
[24] = AUC (0 to t) in male C57BL/6J mouse at 5 mg/kg, iv administered as single dose and measured over 24 hrs by LC-MS/MS analysis; assay type: ADME, organism-based; settings: in vivo

Which results are given for COc1ccccc1CCNC(=O)/C(=C/c1ccc(Br)cc1)CS(=O)(=O)CCC#N?
inhibition (BMDM): Active; Activity (Mus musculus [1]): inactive; inhibition (THP-1 [2]): Active; Activity (Mus musculus [3]): inactive; inhibition (THP-1 [4]): Active; bioavailability [5]: 16.7%; AUC(0-t) at 24 h [6]: 266 ng·h/mL; Activity (Mus musculus [7]): inactive; inhibition [8]: inactive; AUC(0-inf) [9]: 371 ng·h/mL; Activity (THP-1 [10]): Non-Toxic; Activity (THP-1 [11]): inactive; half-life [12]: 1.71 h; inhibition (THP-1 [13]): inactive; inhibition (THP-1 [14]): Active; half-life [15]: 0.72 h; inhibition (THP-1 [16]): Active; clearance [17]: 37.8 mL/min/kg; Activity (Mus musculus [18]): inactive; Activity (THP-1 [19]): inactive; Vd [20]: 1.4 L/kg; Activity (Mus musculus [21]): Active; Vd [22]: 5.76 L/kg; Activity (Mus musculus [23]): Active; AUC(0-t) at 24 h [24]: 2220 ng·h/mL
